Test results reported in PubChem BioAssay AID1918939 (Molecular Pharmacology Branch, DTP, NCI, 2023).

Tested on: 653999-131-R-J2-PDC complex spheroid viability
Test: Anticancer human tumor 653999-131-R-J2-PDC patient-derived lung adenocarcinoma cell line growth inhibition
Settings: for IC50: curve of first compound; for viability, T/C: stronger effect = lower value
Source text: Multicellular complex tumor spheroid response to LSD1 Inhibitor Iadademstat in combination with a variety of drugs and investigational agents in selected tumor cell lines
The current study was undertaken to assess response to LSD1 inhibitors in combination with standard-of-care drugs and investigational agents in solid tumor complex spheroid models as well as in the K-562 leukemia. Complex spheroids include a stromal component modeled by human endothelial cells (HUVEC) and fibroblasts modeled by human mesenchymal stem cells (MSCs). The concentration ranges selected for each drug and investigational agent were based upon clinically achievable concentrations if the clinical Cmax of the agent was known.
Compounds. The drugs and investigational agents used in this study are listed on Table 1. All of the agents used, including staurosporine (NSC755774) and gemcitabine (NSC613327), were obtained from the Developmental Therapeutics Program, NCI. FDA-approved anticancer drugs are available from the NCI at http://dtp.nci.nih.gov/branches/dscb/oncology_drugset_explanation.html. Drugs and investigational agents were >95% pure by proton nuclear magnetic resonance (NMR) and liquid chromatography/mass spectrometry (LC/MS). Stock solutions were prepared at 400x in DMSO, stored at -70 degrees C, and diluted in fresh medium prior to their use. The final concentration of DMSO in cell culture wells never exceeded 0.25% (v/v). The FDA-approved anticancer drug set is available from the Developmental Therapeutics Program at https://dtp.cancer.gov/organization/dscb/obtaining/available_plates.htm. All drugs and investigational agents were tested over a range starting from a high concentration at or near the clinical Cmax and decreasing in half-log increments. If the clinical Cmax for an agent had not been determined, the highest concentration tested was 10 microM.
Cell Lines. The patient-derived cancer cell (PDC) lines: 292921-168-R-J2-PDC, K24384-001-R-PDC, and 521955-158-R2-J5-PDC pancreatic carcinomas, 556581-035-R-J1 ovarian carcinoma, 324938-238-R-J1-PDC, 855422-203-R-J1-PDC and 883617-216-R-J1-PDC urothelial bladder carcinomas, 743489-274-T-PDC renal cell carcinoma, 138582-R-J1 Merkel cell tumor, K60290-347-R-J1 and K57222-313-R-J1-PDC glioblastomas, 653999-131-R-J2-PDC, LG0703-F948-PDC, and 349418-098-R-PDC non-small cell lung carcinomas, 885512-296-R-J2-PDC, 171881-019-R-J1-PDC breast carcinomas and 186277-243-T-J2-PDC and 233499-124-R-J2-PDC colon carcinomas were obtained from the NCI Patient-Derived Models Repository (PDMR, https://pdmr.cancer.gov). The established cell lines NCI/ADR-RES (RRID:CVCL_14520 and OVCAR-5 (RRID:CVCL_1628) ovarian carcinomas, 786-O (RRID:CVCL_1051) and A498 (RRID:CVCL_A498) renal cell carcinoma, NCI-H211 (ATCC, cat. CRL-5824; RRID:CVCL_1529), NCI-H196 (ATCC, cat. CRL-5823, RRID:CVCL_1509), SW 1271 (ATCC, cat. CRL-2177, RRID:CVCL_1716) and NCI-H1876 (ATCC, cat. CRL-5902, RRID:CVCL_1503) small cell lung carcinomas, MDA-MB-231 (RRID:CVCL_0062) and MDA-MB-468 (RRID:CVCL_0419)breast carcinomas (10-12). Pooled donor human umbilical vein endothelial cells (HUVEC, Lonza, cat. CC-2519) and human mesenchymal stem cells (hMSC, Lonza, cat. PT-2501) were purchased from Lonza (Walkersville, MD).
Cell Culture. All cells were maintained in an incubator at 37 degrees C and 5% CO2 with 95% humidity. The PDC lines were cultured according to standard operating procedures established by the NCI PDMR (https://pdmr.cancer.gov). Briefly all PDCs were thawed and cultured in Matrigel-coated flasks prepared with a working solution of 1X Ham's F-12 nutrient mix, without supplementation (Invitrogen, Waltham, MA, cat. 11765054), 100 U/mL penicillin-streptomycin (Invitrogen, cat. 15140122), and 2.5% Matrigel (Corning Inc., Corning, NY, cat. 354248) for the first three passages. […]
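Note: spheroids exposed to agents for seven days before readout.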

CCc1c2c(nc3ccc(O)cc13)-c1cc3c(c(=O)n1C2)COC(=O)[C@]3(O)CC + NC1CC1c1ccc(-c2cccc(O)c2)cc1
IC50 (second compound 0.1 µM): < 0.949 nM
IC50 (second compound 0.316 µM): < 0.949 nM
IC50 (second compound 1 µM): < 0.949 nM
IC50 (second compound 3.16 µM): < 0.949 nM
IC50 (second compound 10 µM): < 0.949 nM
viability, T/C (second compound 0.1 µM, first compound 0.000949 µM): 27.2%
viability, T/C (second compound 0.1 µM, first compound 0.003 µM): 18%
viability, T/C (second compound 0.1 µM, first compound 0.00949 µM): 11.7%
viability, T/C (second compound 0.1 µM, first compound 0.03 µM): 5.92%
viability, T/C (second compound 0.1 µM, first compound 0.0949 µM): 6.24%
viability, T/C (second compound 0.1 µM, first compound 0.3 µM): 9.54%
viability, T/C (second compound 0.316 µM, first compound 0.000949 µM): 27.7%
viability, T/C (second compound 0.316 µM, first compound 0.003 µM): 21%
viability, T/C (second compound 0.316 µM, first compound 0.00949 µM): 11.2%
viability, T/C (second compound 0.316 µM, first compound 0.03 µM): 5.65%
viability, T/C (second compound 0.316 µM, first compound 0.0949 µM): 6.29%
viability, T/C (second compound 0.316 µM, first compound 0.3 µM): 9.28%
viability, T/C (second compound 1 µM, first compound 0.000949 µM): 25.6%
viability, T/C (second compound 1 µM, first compound 0.003 µM): 19.9%
viability, T/C (second compound 1 µM, first compound 0.00949 µM): 10.6%
viability, T/C (second compound 1 µM, first compound 0.03 µM): 5.85%
viability, T/C (second compound 1 µM, first compound 0.0949 µM): 6.63%
viability, T/C (second compound 1 µM, first compound 0.3 µM): 10.5%
viability, T/C (second compound 3.16 µM, first compound 0.000949 µM): 21.4%
viability, T/C (second compound 3.16 µM, first compound 0.003 µM): 17.2%
viability, T/C (second compound 3.16 µM, first compound 0.00949 µM): 10.3%
viability, T/C (second compound 3.16 µM, first compound 0.03 µM): 5.97%
viability, T/C (second compound 3.16 µM, first compound 0.0949 µM): 7.51%
viability, T/C (second compound 3.16 µM, first compound 0.3 µM): 9.23%
viability, T/C (second compound 10 µM, first compound 0.000949 µM): 23.3%
viability, T/C (second compound 10 µM, first compound 0.003 µM): 13.5%
viability, T/C (second compound 10 µM, first compound 0.00949 µM): 12.3%
viability, T/C (second compound 10 µM, first compound 0.03 µM): 6.19%
viability, T/C (second compound 10 µM, first compound 0.0949 µM): 4.83%
viability, T/C (second compound 10 µM, first compound 0.3 µM): 9.59%
